Like-named read-outs stand apart in the source and are kept apart here.
How the values were obtained:
[1] = test system: Key Broadleaf Weed and Crop Species; assay: Post-Emergent Test II: postemergent herbicidal activity, visual rating after 14 d (Table 7); assay type: in vivo; conditions: post-emergence, 336 h; for pest or weed control at 35 g/ha: 35 g ai/ha; for pest or weed control at 70 g/ha: 70 g ai/ha; for pest or weed control at 140 g/ha: 140 g ai/ha
Method in brief: (§1)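 Greenhouse plants at first or second true leaf stage sprayed with compound in acetone/DMSO-based spray solution with crop oil concentrate and Triton X-155 at 187 L/ha, tested at highest rate and ½× to 1/16× dilutions; solvent blank controls. Injury rated visually 0–100% versus untreated plants after 14 d.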

[2] = test system: Key Grass and Sedge Weeds as well as Grass Crops; assay: Post-Emergent Test II: postemergent herbicidal activity, visual rating after 14 d (Table 8); assay type: in vivo; conditions: post-emergence, 336 h; for pest or weed control at 35 g/ha: 35 g ai/ha; for pest or weed control at 70 g/ha: 70 g ai/ha; for pest or weed control at 140 g/ha: 140 g ai/ha
Method in brief: as §1

[3] = lambsquarters (Chenopodium album), read-out: Visual Growth Reduction (%) 14 Days After Application CHEAL
[4] = oilseed rape, canola (Brassica napus), read-out: Visual Growth Reduction (%) 14 Days After Application BRSNN
[5] = redroot pigweed (Amaranthus retroflexus), read-out: Visual Growth Reduction (%) 14 Days After Application AMARE
[6] = sunflower (Helianthus annuus), read-out: Visual Growth Reduction (%) 14 Days After Application HELAN
[7] = velvetleaf (Abutilon theophrasti), read-out: Visual Growth Reduction (%) 14 Days After Application ABUTH
[8] = wild poinsettia (Euphorbia heterophylla), read-out: Visual Growth Reduction (%) 14 Days After Application EPHHL
[9] = barnyardgrass (Echinochloa crus-galli), read-out: Visual Growth Reduction (%) 14 Days After Application ECHCG
[10] = giant foxtail (Setaria faberi), read-out: Visual Growth Reduction (%) 14 Days After Application SETFA
[11] = maize, corn (Zea mays), read-out: Visual Growth Reduction (%) 14 Days After Application ZEAMX
[12] = rice (Oryza sativa), read-out: Visual Growth Reduction (%) 14 Days After Application ORYSA
[13] = wheat, spring (Triticum aestivum), read-out: Visual Growth Reduction (%) 14 Days After Application TRZAS
[14] = yellow nutsedge (Cyperus esculentus), read-out: Visual Growth Reduction (%) 14 Days After Application CYPES

SMILES: Nc1c(F)c(-c2ccc3c(c2)OC(F)(F)O3)nc(C(=O)O)c1Cl [Compound 7]
- pest or weed control at 35 g/ha [1, 3]: 95 to 100%
- pest or weed control at 70 g/ha [1, 3]: 95 to 100%
- pest or weed control at 140 g/ha [1, 3]: 95 to 100%
- pest or weed control at 35 g/ha [1, 4]: 85 to 94%
- pest or weed control at 70 g/ha [1, 4]: 85 to 94%
- pest or weed control at 140 g/ha [1, 4]: 95 to 100%
- pest or weed control at 35 g/ha [1, 5]: 75 to 84%
- pest or weed control at 70 g/ha [1, 5]: 95 to 100%
- pest or weed control at 140 g/ha [1, 5]: 95 to 100%
- pest or weed control at 35 g/ha [1, 6]: 95 to 100%
- pest or weed control at 70 g/ha [1, 6]: 95 to 100%
- pest or weed control at 140 g/ha [1, 6]: 95 to 100%
- pest or weed control at 35 g/ha [1, 7]: 85 to 94%
- pest or weed control at 70 g/ha [1, 7]: 85 to 94%
- pest or weed control at 140 g/ha [1, 7]: 95 to 100%
- pest or weed control at 35 g/ha [1, 8]: 95 to 100%
- pest or weed control at 70 g/ha [1, 8]: 95 to 100%
- pest or weed control at 140 g/ha [1, 8]: 95 to 100%
- pest or weed control at 35 g/ha [2, 9]: 95 to 100%
- pest or weed control at 70 g/ha [2, 9]: 95 to 100%
- pest or weed control at 140 g/ha [2, 9]: 95 to 100%
- pest or weed control at 35 g/ha [2, 10]: 95 to 100%
- pest or weed control at 70 g/ha [2, 10]: 95 to 100%
- pest or weed control at 140 g/ha [2, 10]: 95 to 100%
- pest or weed control at 35 g/ha [2, 11]: 95 to 100%
- pest or weed control at 70 g/ha [2, 11]: 95 to 100%
- pest or weed control at 140 g/ha [2, 11]: 95 to 100%
- pest or weed control at 35 g/ha [2, 12]: 30 to 44%
- pest or weed control at 70 g/ha [2, 12]: 30 to 44%
- pest or weed control at 140 g/ha [2, 12]: 60 to 74%
- pest or weed control at 35 g/ha [2, 13]: 45 to 59%
- pest or weed control at 70 g/ha [2, 13]: 60 to 74%
- pest or weed control at 140 g/ha [2, 13]: 60 to 74%
- pest or weed control at 35 g/ha [2, 14]: 95 to 100%
- pest or weed control at 70 g/ha [2, 14]: 95 to 100%
- pest or weed control at 140 g/ha [2, 14]: 95 to 100%
